Assay results as given in patent publication US20200390767A1, “Formulations of 4-(7-Hydroxy-2-isopropyl-4-oxo-4H-quinazolin-3-yl)-benzonitrile” (NOVARTIS AG, priority 2019, published 2020).
Read-outs that look alike come from different tables or passages of the source.

What was measured:
[1] = system: healthy volunteers; test: First in human study, safety (SAD and MAD adverse events); assay type: in vivo; settings: 8 times daily for 7 days
Description: This example describes a first-in-human study of compound I conducted in healthy volunteers. A total of 54 subjects were administered to study medication. Part 1 of the first in human study administered single ascending doses of 0.15%, 1.5%, 2.5% w/v (1 drop) of compound I in an eye drop.
Part 2 tested multiple ascending doses (MAD) of compound I, administering (i) 1 drop of 0.15%, 1.5%, 2.5%, 4 times daily (every 6 hours) for 7 days or (ii) 1 drop of 2.5%, 8 times daily (every 3 hours) for 7 days (supra-therapeutic dose) as eye drops.
Safety assessments: Safety assessments consisted of collecting all adverse events (AEs), serious adverse events (SAEs), including systemic and ocular adverse events, along with their severity and relationship to study drug. Systemic safety assessments included regular monitoring of hematology, blood chemistry and urinalysis performed at study center and regular assessments of physical examination, vital signs (systolic and diastolic blood pressure, pulse rate, and body temperature), ECG, pregnancy and assessments of fertility and hand immersion test at 49° C. during MAD part. Ocular safety assessments included early treatment diabetic retinopathy study (ETDRS) visual acuity, intraocular pressure, slit-lamp biomicroscopy, corneal staining and dilated fundus exam. […]

[2] = system: postoperative ocular pain in patients undergoing photorefractive keratectomy (PRK) surgery; test: PRK clinical study, VAS pain severity; assay type: in vivo, human
Description: The study was a proof of concept, double-masked, randomized, vehicle-controlled study of compound I administered as eye drops in addition to standard of care treatment in patients after PRK surgery. PRK surgery was performed as an outpatient procedure under topical anesthesia with removal of the corneal epithelium to expose the stroma for the laser ablation. Compound I dosing was as single eye drop of 2.5% (0.925 mg/drop), administered four times daily (every six hours) in one eye from immediate post-op (time 0) to last dose at 72 hours.
The study consisted of 2 treatment periods using a crossover design. Patients underwent PRK surgery on 2 separate occasions (periods), one eye at a time. Patients were randomized to receive either compound 1 or vehicle following procedure 1 and the alternate following procedure 2.
Patient subjective experience of pain was recorded using VAS, a numeric assessment of pain between 0 and 100, with 0 representing no pain, and 100 representing worst imaginable pain. […] Since it was important clinically to both decrease the maximum pain as well as the overall pain that the patient experiences during the immediate postoperative period, the two periods of 6 hours and up to 12 hours postoperatively, were evaluated as primary endpoints. All evaluable VAS data was collected using an ePRO, which was an electronic device (cell phone with software application), on which patients marked their pain levels at the appropriate time points.
Rescue oral analgesics: It is not ethical to refuse pain control medication to patients postoperatively as part of a clinical trial. […] Because the use of oral rescue medication may be a potential confounder of the pain VAS evaluation, three approaches were used when analyzing pain VAS scores to account for the influence of pain meds (assuming 4 hours of rescue medication effect): (1) any recorded VAS score within 4 hours after use of rescue medication was considered missing; (2) all the recorded VAS scores was used; and (3) any recorded VAS scores within 4 hours after rescue medication use was imputed by the record taken prior to the rescue medication.
The mean VAS pain severity scores at 6 hours and 0-12 hours post-operatively are presented in Table 22 and Table 23, respectively, and shown in FIG. 3. The primary analysis was performed using the Primary PD analysis set.

[3] = PRK clinical study, residual compound I in bandage contact lens; assay type: in vivo, human; settings: Day 4; for concentration at 4 day: human, bandage contact lens extract, topical, 0.925 mg, 0.55 mL extraction fluid
Description: Compound I was quantified in plasma using a validated LC-MS/MS method; the lower limit of quantification (LLOQ) was 0.05 ng/mL. Concentrations were expressed in ng per mL units. When feasible, bandage contact lenses (BCL) exposed to study drug were collected and analyzed for residual drug exposure after treatment (LLOQ: 5.00 ng/mL in 0.55 mL of extraction fluid, or 2.75 ng/BCL). Concentrations below the LLOQ were reported as “zero” and missing data were labeled as such.
Bandage Contact Lens (BCL) was collected from 40 patients on Day 4 of the dose administration and analyzed for compound I. Values from the three IMP non-compliant patients were excluded from BCL summary statistics, leaving 37 values evaluable, including one value from a patient without available plasma PK. The mean concentration of compound I (CV %) in 0.55 mL extraction fluid was 8500 ng/mL (73.1%), with a wide range of 284 to 22600 ng/mL. These concentrations translate to an estimated mean of 4680 ng/lens (0.55 mL×8500 ng/mL), and a range of 156 to 12400 ng/lens. The amount in BCL was very small in relation to the 0.925 mg dose of compound I administered: mean 0.51%, and range of 0.017% to 1.3% of dose.

SMILES: CC(C)c1nc2cc(O)ccc2c(=O)n1-c1ccc(C#N)cc1 [Compound I, 4-(7-hydroxy-2-isopropyl-4-oxo-4H-quinazolin-3-yl)-benzonitrile]
- dose limiting adverse events ([1]; 2.5%): No dose limiting adverse events were identified
- Maximum Tolerated Dose (MTD) ([1]; eye drops, healthy volunteers): 2.5%
- VAS pain severity score, % Diff ([2]; 0-12 hours post-operatively): −22%
- VAS pain severity score, Diff (compound I-Vehicle) ([2]; 0-12 hours post-operatively): −8.56
- VAS pain severity score, model estimated mean ([2]; 0-12 hours post-operatively, 2.5% four times daily, Primary PD analysis set): 30.90
- VAS pain severity versus Vehicle during the first 18 hours after surgery ([2]; 6 out of the 7 time points, p-value threshold 0.10): statistically significantly lower VAS pain severity scores
- VAS pain severity score, % Diff ([2]; 6 hours post-operatively): −25%
- VAS pain severity score, Diff (compound I-Vehicle) ([2]; 6 hours post-operatively): −11.1
- VAS pain severity score, model estimated mean (SE) ([2]; 6 hours post-operatively, 2.5% four times daily, Primary PD analysis set): 34.63 (4.05)
- mean change in VAS score after instillation of eye drop ([2]; 6.5 hours versus 6 hours post-operative): −3.1
- mean change in VAS score after instillation of eye drop ([2]; 18.5 hours versus 18 hours post-operative): 2.8
- mean change in VAS score after instillation of eye drop ([2]; 24.5 hours versus 24 hours post-operative): 1.3
- amount in BCL in relation to the 0.925 mg dose, mean [3]: 0.51 % of dose
- estimated mean amount in bandage contact lens [3]: 4680 ng/lens
- concentration at 4 day ([3]; read-out: concentration of compound I in bandage contact lens extract, range): 284 to 22600 ng/mL
- concentration at 4 day ([3]; read-out: mean concentration of compound I in bandage contact lens extract): 8500 ng/mL
